The values below come from patent publication US20080145317A1, “EFFERVESCENT FORMULATIONS OF FLORFENICOL FOR ADDITION IN DRINKING WATER SYSTEMS” (Schering Corporation, priority 2006, published 2008).

Molecules are shown by their SMILES.

The nature of series [1]: Dissolution test, USP apparatus 2, paddle agitation at 50 rpm, Milli-Q water. In kind it is physicochemical. The following applies: 25° C., 0.1 mg/mL final. On the procedure:
The dissolution medium was Milli-Q water maintained at a temperature of 25° C. The effervescent formulations were added directly to the water in the correct amount to achieve a final concentration of 0.1 mg/mL of florfenicol. Aliquots of the resulting solution were withdrawn and analyzed using either UV-VIS spectrophotometry or HPLC, the latter to exclude excipient contribution or degradation of florfenicol. For HPLC analysis, an organic/aqueous mobile phase was used for the separation on a C18, reverse phase column. Detection was performed by UV absorption spectrometry. The percent dissolved was calculated versus an external reference standard prepared at the nominal concentration of the analyte. Pure florfenicol was analyzed as a comparator to assess the effectiveness of the effervescent formulation. Referring now to the tables below, it can be seen that pure florfenicol was only 25% dissolved in 15 minutes and 43% dissolved within 60 minutes. […] Therefore, the effervescent formulation increased the florfenicol rate of dissolution and allowed a complete dissolution within 5 minutes of the addition to water.

For series [2] the following is noted: stated in background, no method; cited from earlier work.

Turning to `CS(=O)(=O)c1ccc([C@@H](O)[C@@H](CF)NC(=O)C(Cl)Cl)cc1` (relative stereo) [Pure Florfenicol, [R-(R*, S*)]-2,2-Dichloro-N-[1-(fluoromethyl)-2-hydroxy-2-[4-[(methylsulfonyl)phenyl]-ethyl]acetamide], the “% Drug in Solution” value in series [1] (Time 0, pure florfenicol in Milli-Q water) was determined as 0%; in series [1] (Time 15 (minutes), Milli-Q water), 25%; in series [1] (Time 30 (minutes), Milli-Q water), 35%; in series [1] (Time 45 (minutes), Milli-Q water), 36%; in series [1] (Time 60 (minutes), Milli-Q water), 43%. Moreover, the water-solubility in series [2] was 1.23 mg/mL.
